Measurements published in article PMC6695598, “The Development of Tetrazole Derivatives as Protein Arginine Methyltransferase I (PRMT I) Inhibitors” (International Journal of Molecular Sciences, 2019).
Counter-ions that a name gives are not always drawn.

Legend:
PRMT1 = PRMT1 (Homo sapiens, UniProt Q99873); assay: radioactive PRMT1 methylation inhibition assay ([3H]-SAM, biotinylated histone H4 peptide); format: biochemical; settings: for % Inhibition of PRMT1 (at 10 μM) / inhibition at 10 µM: 10 μM compound, initial screening
Protocol: A series of 1,5-substituded tetrazole derivatives were synthesized to investigate the structure-activity relationship (SAR) of PRMT1 inhibitors (Table 1). […] The chemical modification of these compounds is mainly focused on the substituted benzene ring. The initial screening of these compounds was carried out using the radioactive PRMT1 methylation inhibition assay, which measured the amount of methyl groups that transferred from [^3H]-SAM to a biotinylated histone H4 peptide (ac- […](Biotin)). […] In the second step, the Group II compounds were designed and synthesized by extending the ethylenediamine side chain to propylenediamine.
(§1) The enzyme inhibitory activities were measured by the radioisotope assay in ShangHai Chempartner Co. Ltd. according to the standard protocol. The similar procedure was recently performed in the publication The radioactive methylation assay was performed in 1× assay buffer (modified Tris buffer) system containing enzyme (PRMT1/5), peptide and [^3H]-SAM solution and compounds on the assay plate. […] Afterwards, the reaction was stopped with addition of 5 μL cold SAM solution to per well. Then, 25 μL of volume per well was transferred to Flashplate from assay plate and incubated for 1 h minimum at room temperature. Finally, the Flashplate was washed with dH2O and 0.1% Tween-20 three times and then reading plate in Mi crobeta using program ^3H-Flashplate. The data was analyzed in GraphPad Prism 5 to obtain IC50 values.

PRMT5 = PRMT5 (Homo sapiens, UniProt O14744); assay: radioactive methylation assay, PRMT5 selectivity; format: biochemical
Protocol: as §1

PRMT1, sequence (Q99873 whole entry): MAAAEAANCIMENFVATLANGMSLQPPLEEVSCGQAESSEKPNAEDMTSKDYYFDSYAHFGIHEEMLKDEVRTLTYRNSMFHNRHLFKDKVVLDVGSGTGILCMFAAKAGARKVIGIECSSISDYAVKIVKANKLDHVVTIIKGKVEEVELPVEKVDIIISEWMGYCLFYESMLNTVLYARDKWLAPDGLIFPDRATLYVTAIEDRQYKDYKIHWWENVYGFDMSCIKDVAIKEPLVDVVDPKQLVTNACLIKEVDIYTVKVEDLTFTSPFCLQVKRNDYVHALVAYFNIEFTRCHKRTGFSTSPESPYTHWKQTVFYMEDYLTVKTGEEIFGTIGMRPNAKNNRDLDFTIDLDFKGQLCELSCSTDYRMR
PRMT5, sequence (O14744 whole entry, species assumed): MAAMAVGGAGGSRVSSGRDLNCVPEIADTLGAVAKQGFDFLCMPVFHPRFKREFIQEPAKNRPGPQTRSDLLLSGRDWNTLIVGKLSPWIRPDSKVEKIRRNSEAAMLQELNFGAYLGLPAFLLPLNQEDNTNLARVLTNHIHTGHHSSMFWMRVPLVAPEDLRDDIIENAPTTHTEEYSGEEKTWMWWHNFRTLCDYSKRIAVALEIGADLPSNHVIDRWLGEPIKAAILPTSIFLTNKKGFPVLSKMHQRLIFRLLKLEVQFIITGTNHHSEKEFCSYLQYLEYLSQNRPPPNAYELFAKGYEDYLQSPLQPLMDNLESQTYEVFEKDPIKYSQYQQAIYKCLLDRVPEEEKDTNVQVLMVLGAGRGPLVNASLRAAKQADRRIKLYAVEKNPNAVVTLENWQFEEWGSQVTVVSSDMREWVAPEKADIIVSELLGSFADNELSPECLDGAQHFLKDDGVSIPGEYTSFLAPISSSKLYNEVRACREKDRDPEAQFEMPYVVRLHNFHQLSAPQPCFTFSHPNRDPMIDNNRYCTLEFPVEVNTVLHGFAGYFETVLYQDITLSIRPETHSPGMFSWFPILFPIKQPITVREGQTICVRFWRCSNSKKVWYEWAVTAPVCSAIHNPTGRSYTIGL
PRMT5, sequence (Q9BQA1 whole entry partner, species assumed): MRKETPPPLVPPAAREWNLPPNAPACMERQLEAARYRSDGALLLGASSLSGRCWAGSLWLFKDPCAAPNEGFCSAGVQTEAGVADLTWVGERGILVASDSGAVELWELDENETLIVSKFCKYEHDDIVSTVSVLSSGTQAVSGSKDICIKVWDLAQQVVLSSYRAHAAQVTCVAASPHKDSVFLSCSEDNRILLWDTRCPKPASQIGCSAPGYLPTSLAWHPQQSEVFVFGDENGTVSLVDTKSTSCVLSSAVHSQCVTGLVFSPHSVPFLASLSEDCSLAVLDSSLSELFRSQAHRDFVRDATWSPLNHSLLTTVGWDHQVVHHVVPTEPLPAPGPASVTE

Molecule | melting point | inhibition at 10 µM (PRMT1) | other results
N,N’-Dimethyl-N’-(1-(3-methylsulfonylphenyl)-1H-tetrazol-5-yl-methyl)-1,3-propylenediamine hydrochloride [16e] |  |  | % Inhibition of PRMT1 (at 10 μM) (PRMT1): −4%
CNCCN(C)Cc1nnnn1-c1ccc(OCC(F)(F)F)cc1.Cl [16c, N,N’-Dimethyl-N’-(1-(4-(2,2,2-trifluoroethoxy)phenyl)-1H-tetrazol-5-yl-methyl)ethylenediamine hydrochloride] | 188.7 to 190 °C |  | IC50 (PRMT5): > 100 µM
CNCCN(C)Cc1nnnn1-c1cccc(OCC(F)(F)F)c1 [16d, N,N’-Dimethyl-N’-(1-(3-(2,2,2-trifluoroethoxy)phenyl)-1H-tetrazol-5-ylmethyl)ethylenediamine hydrochloride] |  | 3% | 
CNCCNCc1nnnn1-c1ccc(OC(C)C)cc1.Cl [18c, N-Methyl-N’-(1-(4-isopropoxyphenyl)-1H-tetrazol-5-yl-methyl)-ethylenediamine hydrochloride] | 179.7 to 180.7 °C | 10% | 
CNCCCN(C)Cc1nnnn1-c1cccc(OC)c1 [10d, N,N’-Dimethyl-N’-(1-(3-methoxyphenyl)-1H-tetrazol-5-yl-methyl)-1,3-propylenediamine hydrochloride] |  | -14% | 
CC(C)Oc1ccc(-n2nnnc2CN2CCN(CCN)CC2)cc1 (as salt: hydrochloride) [18e, N-aminoethyl-N’-(1-(4-isopropoxyphenyl)-1H-tetrazol-5-yl-methyl)-piperazinehydrochloride] | 183.2 to 183.9 °C |  | 
CNCCCN(C)Cc1nnnn1-c1cccc(OC(C)C)c1 [10b, N,N’-Dimethyl-N’-(1-(3-isopropoxyphenyl)-1H-tetrazol-5-yl-methyl)-1,3-propylenediamine hydrochloride] |  | 0% | 
CC(C)Oc1ccc(-n2nnnc2CN(C)CCCN)cc1 [18b, N-(1-(4-Isopropoxyphenyl)-1H-tetrazol-5-yl-methyl)-N-methyl-1,3-propylenediamine hydrochloride] |  | 15% | 
N,N’-Dimethyl-N’-(1-(3-methylsulfonylphenyl)-1H-tetrazol-5-yl-methyl)ethylenediamine hydrochloride [16b] |  |  | % Inhibition of PRMT1 (at 10 μM) (PRMT1): 13%
CC(C)Oc1ccc(-n2nnnc2CNCCN)cc1 [18d, N-(1-(4-Isopropoxyphenyl)-1H-tetrazol-5-yl-methyl)-ethylenediaminehydrochloride] |  | 18% | 
CNCCCN(C)Cc1nnnn1-c1ccc(OC)cc1.Cl [10c, N,N’-Dimethyl-N’-(1-(4-methoxyphenyl)-1H-tetrazol-5-yl-methyl)-1,3-propylenediamine hydrochloride] | 188.2 to 190.1 °C | -6% | 
N-Guanidino-N’-(1-(4-isopropoxyphenyl)-1H-tetrazol-5-yl-methyl)-N’-methyl-ethylenediamine hydrochloride [compound 20] |  |  | % Inhibition of PRMT1 (at 10 μM) (PRMT1): −7%
CNCCN(C)Cc1nnnn1-c1cccc(OC(C)C)c1 [9b, N,N’-Dimethyl-N’-(1-(3-isopropoxyphenyl)-1H-tetrazol-5-yl-methyl)ethylenediamine hydrochloride] |  | 0% | 
CC(C)Oc1ccc(-n2nnnc2CN2CCN(CCN)CC2)cc1 [18e, N-aminoethyl-N’-(1-(4-isopropoxyphenyl)-1H-tetrazol-5-yl-methyl)-piperazinehydrochloride] |  |  | IC50 (PRMT5): > 100 µM
CNCCN(C)Cc1nnnn1-c1cccc(OC(F)(F)F)c1.Cl [9e, N,N’-Dimethyl-N’-(1-(3-trifluoromethoxyphenyl)-1H-tetrazol-5-yl-methyl)ethylenediamine hydrochloride] | 185.6 to 186.4 °C | -17% | 
CNCCN(C)Cc1nnnn1-c1cccc(OC)c1.Cl [9d, N,N’-Dimethyl-N’-(1-(3-methoxyphenyl)-1H-tetrazol-5-yl-methyl)ethylenediamine hydrochloride] | 185.6 to 186.4 °C | 7% | 
CNCCN(C)Cc1nnnn1-c1ccc(OC)cc1.Cl [9c, N,N’-Dimethyl-N’-(1-(4-methoxyphenyl)-1H-tetrazol-5-yl-methyl)ethylenediamine hydrochloride] | 163.2 to 163.6 °C | 3% | 
CNCCCN(C)Cc1nnnn1-c1ccc(OC(C)C)cc1 [10a, N,N’-Dimethyl-N’-(1-(4-isopropoxyphenyl)-1H-tetrazol-5-yl-methyl)-1,3-propylenediamine hydrochloride] |  | 23% | 
CC(C)Oc1ccc(-n2nnnc2CNCCN)cc1 (as salt: hydrochloride) [18d, N-(1-(4-Isopropoxyphenyl)-1H-tetrazol-5-yl-methyl)-ethylenediaminehydrochloride] | 183.1 to 183.9 °C |  | 
CNCCN(C)Cc1nnnn1-c1ccc(OC(F)(F)F)cc1.Cl [9f, N,N’-Dimethyl-N’-(1-(4-trifluoromethoxyphenyl)-1H-tetrazol-5-yl-methyl)ethylenediamine hydrochloride] | 194.3 to 195.2 °C |  | IC50 (PRMT5): > 100 µM
CC(C)Oc1ccc(-n2nnnc2CN(C)CCN)cc1.Cl [18a, N-(1-(4-Isopropoxyphenyl)-1H-tetrazol-5-yl-methyl)-N-methyl-ethylenediamine hydrochloride] | 186.5 to 187.7 °C | 50% | IC50 (PRMT1): 10 µM; IC50 (PRMT5): > 100 µM
CNCCCN(C)Cc1nnnn1-c1cccc(OC(F)(F)F)c1 [10e, N,N’-Dimethyl-N’-(1-(3-trifluoromethoxyphenyl)-1H-tetrazol-5-yl-methyl)-1,3-propylenediamine hydrochloride] |  | -12% | 
N,N’-Dimethyl-N’-(1-(4-methylsulfonylphenyl)-1H-tetrazol-5-yl-methyl)ethylenediamine hydrochloride [16a] |  |  | % Inhibition of PRMT1 (at 10 μM) (PRMT1): 23%
